IC50 and Ki data for 28 compounds are collected here from patent US11008340B2, “Modulators of ROR-gamma” (Vitae Pharmaceuticals, LLC, priority 2015, dated 2021).

pIC50, pKi: −log10 of the molar value. Where two headings read alike, the source gives them in different places. Some results are limits rather than exact numbers.

In assay [1] the target is T1, full-length RORγt in Jurkat cells (Homo sapiens, UniProt P51449).
T1 construct: transcriptional activity of the full-length RORγt in Jurkat cells; host or cells: Jurkat cells (ATCC TIB-152)
T1 sequence (P51449 1-497 isoform P51449-2): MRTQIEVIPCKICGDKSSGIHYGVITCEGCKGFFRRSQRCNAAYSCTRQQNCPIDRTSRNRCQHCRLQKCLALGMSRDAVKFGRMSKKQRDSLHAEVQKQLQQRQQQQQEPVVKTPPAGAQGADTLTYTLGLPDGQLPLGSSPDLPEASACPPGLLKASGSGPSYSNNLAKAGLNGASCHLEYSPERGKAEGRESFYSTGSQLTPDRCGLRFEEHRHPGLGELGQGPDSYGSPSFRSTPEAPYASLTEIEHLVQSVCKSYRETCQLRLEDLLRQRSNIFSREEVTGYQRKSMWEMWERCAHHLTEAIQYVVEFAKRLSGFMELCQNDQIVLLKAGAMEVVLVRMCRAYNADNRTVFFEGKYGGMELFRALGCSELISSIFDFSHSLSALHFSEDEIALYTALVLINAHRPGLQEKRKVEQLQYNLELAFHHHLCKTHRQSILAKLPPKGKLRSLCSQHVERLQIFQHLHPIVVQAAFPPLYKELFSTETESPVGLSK
The assay is described as follows: RORγt 5×RORE Assay in Jurkat Cells (Assay 2). Format: cell-based. The conditions noted are these: 5×RORE luciferase reporter. The method, boiled down:
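Inverse agonism measured as reduced NanoGlo signal from secreted NanoLuc in conditioned supernatant after 16-18 hrs compound exposure (37° C, 0.1% DMSO). Reporter: 5×RORE-driven secNluc, co-transfected with full-length RORγt into Jurkat cells cultured in delipidated-FBS, phenol-red-free RPMI.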
(In general: In a reporter assay the amount or activity of a reporter protein is the signal.)

For assay [2], the target named is T2, recombinant RORγ Ligand Binding Domain (LBD) protein (Homo sapiens, UniProt P51449).
T2 construct: 6×His; GST
T2 sequence (P51449 269-508 limits assumed): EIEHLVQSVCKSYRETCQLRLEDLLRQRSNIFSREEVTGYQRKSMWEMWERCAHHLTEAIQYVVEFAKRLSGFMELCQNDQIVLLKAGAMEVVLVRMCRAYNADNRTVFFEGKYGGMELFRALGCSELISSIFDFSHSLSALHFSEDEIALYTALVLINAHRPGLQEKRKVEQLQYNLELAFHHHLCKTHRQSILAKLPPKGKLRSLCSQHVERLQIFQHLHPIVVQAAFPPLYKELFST
The assay is described as follows: Radio-Ligand RORγ Binding Assay (Assay 1). The conditions noted are these: radio-ligand competition, RORγ LBD, read-out: Avg ROR Bind Ki. In short, it runs like this: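 Cell-free SPA competition between compound and 25-hydroxy[26,27-^3H]-cholesterol for 6×His-GST-tagged RORγ LBD in 50 mM HEPES pH 7.4 with NaCl, MgCl2, glycerol, CHAPS, octylglucoside and DTT. Mix was shaken 20 min, held 10 min at rt, then read after poly-Lys YSi beads. IC50 came from a four-parameter fit, and Ki from radioligand KD.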

The mark [3] stands for this setting: 25-hydroxy [26,27-3H]-cholesterol.
Where [4] appears, read: Table 20, read-out: Avg ROR γt/5x IC5.

On to `CCS(=O)(=O)c1ccc(CNC(=O)c2cnc3c(c2)CCN(C[C@H]2CC[C@H](C(F)(F)F)CC2)[C@H]3C(C)C)cc1` (single isomer, unassigned) [Hy2B-9.1], for which, in assay [1] (head without unit (Tables 15, 17), read-out: Avg ROR γt/5x IC50), the pIC50 was 6.00 to 7.00. The pKi (commonly −log10 of the Ki, conventionally taken in molar units) in assay [2] (head without unit (Tables 15, 17)) was above 7.00.
For the compound `CCS(=O)(=O)c1ccc([C@H](CO)NC(=O)c2sc3nc(C)nc(OCc4ccc(C(F)(F)F)cc4)c3c2C)cc1` [Hy6-3, (R)-N-(1-(4-(ethylsulfonyl)phenyl)-2-hydroxyethyl)-2,5-dimethyl-4-((4-(trifluoromethyl)benzyl)oxy)thieno[2,3-d]pyrimidine-6-carboxamide], in assay [1] (read-out: Avg ROR γt/5x IC50), the pIC50 was above 7.00. In addition, the pKi in assay [2] (setting [3]) was above 7.00.
For the compound `CC[C@H]1CN(c2ccc(C(F)(F)F)cc2)C(=O)c2cc(C(=O)NCc3ccc(S(=O)(=O)CC)cc3)ccc21` (single isomer, unassigned) [Hy7-12.2], the pIC50 in assay [1] (setting [4]) was 6.00 to 7.00. Moreover, the pKi in assay [2] (setting [3]) was above 7.00.
As to `CCOC(=O)c1cnc(N2Cc3cc(C(=O)N[C@@H](CO)c4ccc(S(=O)(=O)CC)cc4)ccc3[C@H](CC)C2)nc1` (single isomer, unassigned) [Hy7-34.1], in assay [1] (setting [4]), the pIC50 was above 7.00. Further, the pKi in assay [2] (setting [3]) was above 7.00.
Take `CCS(=O)(=O)c1ccc(CNC(=O)c2ccc3c(c2)C(C)(C)CN(Cc2cnc(C)cn2)[C@H]3C(C)C)cc1` (single isomer, unassigned) [Hy2A-22.1]: the pIC50 in assay [1] (read-out: Avg ROR γt/5x IC50) was 6.00 to 7.00. Also, in assay [2] (setting [3]), the pKi is above 7.00.
In the case of `CCS(=O)(=O)c1ccc(CNC(=O)c2ccc3c(c2)CN(c2nccc(C(F)(F)F)n2)C[C@@H]3C(C)C)cc1` (single isomer, unassigned) [Hy7-14.2], in assay [1] (setting [4]), the pIC50 was below 6.00. Also, the pKi in assay [2] (setting [3]) was above 7.00.
`CC[C@H]1CN(c2ncc(C(F)(F)F)cn2)Cc2cc(C(=O)NCc3ccc(S(=O)(=O)CC)cn3)ccc21` (single isomer, unassigned) [Hy7-10.1]: the pIC50 in assay [1] (setting [4]) is above 7.00. The pKi in assay [2] (setting [3]) was above 7.00.
With `CCS(=O)(=O)c1ccc(CNC(=O)c2ccc3c(c2)CCN(Cc2ccc(OC(F)F)nc2)[C@H]3C(C)C)cc1` (single isomer, unassigned) [Hy2A-25.1], in assay [1] (read-out: Avg ROR γt/5x IC50), the pIC50 was above 7.00. For the same compound, the pKi in assay [2] (setting [3]) was above 7.00.
In the case of `CCS(=O)(=O)c1ccc(CNC(=O)c2ccc3c(c2)CN(c2ncc(C(F)(F)F)cn2)C[C@@H]3C(F)(F)F)cc1` (single isomer, unassigned) [Hy7-36.2], the pIC50 in assay [1] (setting [4]) is below 6.00. The pKi in assay [2] (setting [3]) is above 7.00.
Consider `CC[C@@H]1CN(c2ccc(C(F)(F)F)cn2)Cc2cc(C(=O)NCc3ccc(S(=O)(=O)CC)cc3)ccc21` (single isomer, unassigned) [Hy7-8.1], for which the pIC50 in assay [1] (setting [4]) is above 7.00. Further, in assay [2] (setting [3]), the pKi is above 7.00.
With `CCOC(=O)c1cnc(N2Cc3cc(C(=O)NCc4ccc(S(=O)(=O)CC)cc4)ccc3[C@H](C(C)C)C2)nc1` (single isomer, unassigned) [Hy7-16.1], in assay [1] (setting [4]), the pIC50 is above 7.00. Also, the pKi in assay [2] (setting [3]) is above 7.00.
`CCS(=O)(=O)c1ccc(CNC(=O)c2ccc3c(c2)CCN(Cc2ccc(C#N)nc2)[C@H]3C(C)C)cc1` (single isomer, unassigned) [Hy2A-17.1]: the pIC50 in assay [1] (read-out: Avg ROR γt/5x IC50) is above 7.00. Further, the pKi in assay [2] (setting [3]) is above 7.00.
For `CCS(=O)(=O)c1ccc([C@H](CO)NC(=O)c2cnc3c(C4CC4)n(C[C@H]4CC[C@H](C(F)(F)F)CC4)nc3c2)cc1` [Hy3B-1, 3-cyclopropyl-N-((R)-1-(4-(ethylsulfonyl)phenyl)-2-hydroxyethyl)-2-(((1r,4R)-4-(trifluoromethyl)cyclohexyl)methyl)-2H-pyrazolo[4,3-b]pyridine-6-carboxamide], the pIC50 in assay [1] (read-out: Avg ROR γt/5x IC50) is above 7.00. The pKi in assay [2] (setting [3]) is above 7.00.
Regarding `CCS(=O)(=O)c1ccc(CNC(=O)c2ccc3c(c2)CN(c2ncc(C4CC4)cn2)C[C@H]3C(C)C)cc1` (single isomer, unassigned) [Hy7-4.1], the pIC50 in assay [1] (setting [4]) was 6.00 to 7.00. Further, the pKi in assay [2] (setting [3]) was above 7.00.
For `CCS(=O)(=O)c1ccc(CNC(=O)c2ccc3c(c2)CCN(Cc2ccc(Cl)cc2)C3C(C)C)cc1` (racemic) [Hy2A-19, 2-(4-chlorobenzyl)-N-(4-(ethylsulfonyl)benzyl)-1-isopropyl-1,2,3,4-tetrahydroisoquinoline-6-carboxamide], the pIC50 in assay [1] (read-out: Avg ROR γt/5x IC50) is above 7.00. The pKi in assay [2] (setting [3]) was above 7.00.
Regarding `CCS(=O)(=O)c1ccc(CNC(=O)c2ccc3c(c2)CN(Cc2ccc(Cl)cc2)C[C@@H]3C(C)C)cc1` (single isomer, unassigned) [Hy7-29.2], the pIC50 in assay [1] (setting [4]) is 6.00 to 7.00. In addition, the pKi in assay [2] (setting [3]) was above 7.00.
On the same counts, the results for `CC[C@H]1CN(c2ncc(-c3ncco3)cn2)Cc2cc(C(=O)NCc3ccc(S(=O)(=O)CC)cc3)ccc21` (single isomer, unassigned) [Hy7-31.2] are below 6.00 and above 7.00.
Turning to `CCS(=O)(=O)c1ccc(CNC(=O)c2ccc3c(c2)CCN(Cc2ncc(Br)cn2)[C@H]3C(C)C)cc1` (single isomer, unassigned) [Hy2A-26.1], the pIC50 in assay [1] (read-out: Avg ROR γt/5x IC50) is 6.00 to 7.00. Also, in assay [2] (setting [3]), the pKi is above 7.00.
On the same counts, the results for `CCS(=O)(=O)c1ccc([C@H](CO)NC(=O)c2ccc3c(Oc4ccc(OC(F)(F)F)cc4)nc(C)cc3c2)cc1` [Hy1A-15, (R)-N-(1-(4-(ethylsulfonyl)phenyl)-2-hydroxyethyl)-3-methyl-1-(4-(trifluoromethoxy)phenoxy)isoquinoline-6-carboxamide] are 6.00 to 7.00 and above 7.00.
For `CCS(=O)(=O)c1ccc([C@H](CO)NC(=O)c2ccc3c(OCC4CCC(F)(F)CC4)nc(C)cc3c2)cc1` [Hy1A-14, (R)-1-((4,4-difluorocyclohexyl)methoxy)-N-(1-(4-(ethylsulfonyl)phenyl)-2-hydroxyethyl)-3-methylisoquinoline-6-carboxamide], in that order: above 7.00 and above 7.00.
For `CCS(=O)(=O)c1ccc(CNC(=O)c2ccc3c(OC4CCC(C(F)(F)F)CC4)nccc3c2)cc1` (single isomer, unassigned) [Hy1A-3.2, N-(4-(ethylsulfonyl)benzyl)-1-(((1r,4r)-4-(trifluoromethyl)cyclohexyl)oxy)isoquinoline-6-carboxamide], the pIC50 in assay [1] (read-out: Avg ROR γt/5x IC50) is below 6.00. For the same compound, in assay [2] (setting [3]), the pKi was above 7.00.
Turning to `CCS(=O)(=O)c1ccc([C@H](CO)NC(=O)c2ccc3c(C4CC4)n(Cc4ccc(C(F)(F)F)cc4)nc3c2)cc1` [Hy3A-4, (R)-3-cyclopropyl-N-(1-(4-(ethylsulfonyl)phenyl)-2-hydroxyethyl)-2-(4-(trifluoromethyl)benzyl)-2H-indazole-6-carboxamide], the pIC50 in assay [1] (read-out: Avg ROR γt/5x IC50) was above 7.00. The pKi in assay [2] (setting [3]) is above 7.00.
`CCS(=O)(=O)c1ccc(CNC(=O)c2ccc3c(c2)CCN(c2nccc(C(F)(F)F)n2)C3C(C)C)cc1` (centres unmarked) [Hy2A-3, N-(4-(ethylsulfonyl)benzyl)-1-isopropyl-2-(4-(trifluoromethyl)pyrimidin-2-yl)-1,2,3,4-tetrahydroisoquinoline-6-carboxamide]: in assay [1] (read-out: Avg ROR γt/5x IC50), the pIC50 is below 6.00. Moreover, in assay [2] (setting [3]), the pKi is above 7.00.
On the same counts, the results for `CCC1c2ccc(C(=O)NCc3ccc(S(=O)(=O)CC)cc3)cc2CCN1CC1CCC(C(F)(F)F)CC1` (single isomer, unassigned) [Hy2A-27] are above 7.00 and above 7.00.
`CCS(=O)(=O)c1ccc(CNC(=O)c2ccc3c(c2)CCN(Cc2ccc(C#N)cc2)[C@H]3C(C)C)cc1` (single isomer, unassigned) [Hy2A-15.1]: the pIC50 in assay [1] (read-out: Avg ROR γt/5x IC50) is above 7.00. Also, in assay [2] (setting [3]), the pKi was above 7.00.
Consider `CC[C@@H]1CN(c2ncc(C(F)(F)F)cc2C)Cc2cc(C(=O)N[C@@H](CO)c3ccc(S(=O)(=O)CC)cc3)ccc21` (single isomer, unassigned) [Hy7-22.1], for which the pIC50 in assay [1] (setting [4]) was above 7.00. Moreover, the pKi in assay [2] (setting [3]) is above 7.00.
Take `CCS(=O)(=O)c1ccc(CNC(=O)c2ccc3c(c2)CCN(Cc2ccc(Cl)cc2)[C@H]3C(C)C)cc1` (single isomer, unassigned) [Hy2A-20.1]: in assay [1] (read-out: Avg ROR γt/5x IC50), the pIC50 is above 7.00. The pKi in assay [2] (setting [3]) is above 7.00.
For `CCS(=O)(=O)c1ccc(CNC(=O)c2ccc3c(c2)CN(Cc2ccc(C#N)cc2)C[C@H]3C(C)C)cc1` (single isomer, unassigned) [Hy7-28.1], in assay [1] (setting [4]), the pIC50 was 6.00 to 7.00. Besides, in assay [2] (setting [3]), the pKi is above 7.00.
